ChEMBL document CHEMBL4808173, “Discovery of Novel Benzimidazole and Indazole Analogues as Tubulin Polymerization Inhibitors with Potent Anticancer Activities” (J Med Chem, 2021)
pIC50: −log10 of the molar value. Calls of active or inactive are those of the source. The calls are words filed in the database; no cut-off is given here.

What was measured:
[1] = test system: MCF7; experiment: Antiproliferative activity against human MCF7 cells assessed as reduction in cell viability measured after 48 hrs by MTT assay; type: functional, cell-based; conditions: MCF7, 48 h
[2] = test system: A549; experiment: Antiproliferative activity against human A549 cells assessed as reduction in cell viability measured after 48 hrs by MTT assay; type: functional, cell-based; conditions: A549, 48 h
[3] = test system: HeLa; experiment: Antiproliferative activity against human HeLa cells assessed as reduction in cell viability measured after 48 hrs by MTT assay; type: functional, cell-based
[4] = test system: B16-F10; experiment: Antiproliferative activity against mouse B16-F10 cells assessed as reduction in cell viability measured after 48 hrs by MTT assay; type: functional, cell-based; conditions: B16-F10, 48 h
[5] = test system: A2780/Taxol; experiment: Antiproliferative activity against human A2780T cells assessed as reduction in cell viability measured after 48 hrs by MTT assay; type: functional, cell-based
[6] = test system: A2780S; experiment: Antiproliferative activity against human A2780S cells assessed as reduction in cell viability measured after 48 hrs by MTT assay; type: functional, cell-based
[7] = Resistance index, ratio of IC50 for antiproliferative activity against human A2780T cells assessed as reduction in cell viability measured after 48 hrs by MTT assay to IC50 for antiproliferative activity against human A2780S cells assessed as reduction in cell viability measured after 48 hrs by MTT assay; type: functional
[8] = test system: A2780/Taxol; experiment: Inhibition of colony formation in human A2780T cells assessed as decrease in colonies at 100 nM measured after 24 hrs by photographic imaging analysis; type: functional, cell-based
[9] = test system: B16-F10; experiment: Antitumor activity against mouse B16-F10 cells inoculated in BALB/c mouse assessed as tumor growth inhibition at 10 mg/kg, ip qd for 14 days by caliper method relative to control; type: functional; conditions: 336 h, time 14 day, read-out: TGI

Structure (SMILES) | pIC50 [1] | pIC50 [2] | pIC50 [3] | pIC50 [4] | pIC50 [5] | pIC50 [6] | Ratio IC50 [7] | inhibition [8] | inhibition in vivo at 10 mg/kg [9] [%]
COc1cc(-c2cccc3[nH]c(-c4cn(C)c5ccccc45)nc23)cc(OC)c1OC | 6.75 | 6.00 | 6.01 | 6.20 |  |  |  |  | 
COc1cc(-c2n[nH]c3ccc(-c4ccc5c(cnn5C)c4)cc23)cc(OC)c1OC | 6.44 | 5.21 | 5.69 | 5.58 |  |  |  |  | 
CC(=O)O[C@H]1C(=O)[C@@]2(C)[C@H]([C@H](OC(=O)c3ccccc3)[C@]3(O)C[C@H](OC(=O)[C@H](O)[C@@H](NC(=O)c4ccccc4)c4ccccc4)C(C)=C1C3(C)C)[C@]1(OC(C)=O)CO[C@@H]1C[C@@H]2O [PACLITAXEL] |  |  |  |  | 5.50 | 8.12 | 421.8 | inactive | 88.7
COc1cc(-c2ccc3[nH]nc(-c4ccc(C#N)cc4)c3c2)cc(OC)c1OC | < 5.00 | < 5.00 | < 5.00 | < 5.00 |  |  |  |  | 
Cn1ccc2cc(-c3nccn4c(-c5ccc6c(ccn6C)c5)cnc34)ccc21 | < 5.00 | < 5.00 | < 5.00 | < 5.00 |  |  |  |  | 
COc1ccc(-c2ccc3[nH]nc(-c4cc(OC)c(OC)c(OC)c4)c3c2)cc1 | 7.43 | 6.72 | 6.88 | 6.79 |  |  |  |  | 
COc1cc(-c2n[nH]c3ccc(-c4ccc(C(=N)NO)cc4)cc23)cc(OC)c1OC | 5.50 | 5.53 | 5.42 | 5.79 |  |  |  |  | 
COc1cc(-c2ccnc3cc(-c4ccc(S(C)(=O)=O)cc4)nn23)cc([Se]C)c1OC | 5.50 | 5.16 | 5.07 | 5.07 |  |  |  |  | 
COc1cc(-c2cccc3[nH]c(-c4ccc5c(ccn5C)c4)nc23)cc(OC)c1OC | 6.15 | 5.58 | 5.81 | 6.13 |  |  |  |  | 
COc1cc(-c2ccc3[nH]nc(-c4cc(OC)c(OC)c(OC)c4)c3c2)cc(OC)c1OC | < 5.00 | 5.10 | 5.06 | 5.14 |  |  |  |  | 
COc1cc(-c2ccc3[nH]nc(-c4ccc(C(=N)NO)cc4)c3c2)cc(OC)c1OC | < 5.00 | < 5.00 | < 5.00 | < 5.00 |  |  |  |  | 
COc1cc(-c2ccnc3cc(-c4ccc5cnn(C)c5c4)nn23)cc([Se]C)c1OC | 5.93 | 5.90 | 5.43 | 5.43 |  |  |  |  | 
COc1cc(-c2n[nH]c3ccc(-c4cccc(C(=N)NO)c4)cc23)cc(OC)c1OC | < 5.00 | 5.20 | 5.33 | 5.10 |  |  |  |  | 
COc1cc(-c2cnc3c(-c4ccc5c(ccn5C)c4)nccn23)cc(OC)c1OC | < 5.00 | < 5.00 | < 5.00 | < 5.00 |  |  |  |  | 
COc1cc(-c2ccc3[nH]nc(-c4ccc(F)cc4)c3c2)cc(OC)c1OC | < 5.00 | < 5.00 | < 5.00 | < 5.00 |  |  |  |  | 
COc1cc(-c2ccnc3cc(-c4c[nH]c5ccccc45)nn23)cc([Se]C)c1OC | 6.46 | 6.44 | 6.18 | 6.18 |  |  |  |  | 
COc1cc(-c2ccc3[nH]nc(-c4ccc(C)cc4)c3c2)cc(OC)c1OC | < 5.00 | < 5.00 | < 5.00 | < 5.00 |  |  |  |  | 
COc1cc(-c2ccnc3cc(-c4cn(CO)c5ccccc45)nn23)cc([Se]C)c1OC | 6.50 | 6.65 | 6.07 | 6.07 |  |  |  |  | 
COc1cc(-c2n[nH]c3ccc(-c4cccc(C#N)c4)cc23)cc(OC)c1OC | 5.62 | 5.98 | 5.69 | 5.77 |  |  |  |  | 
COc1cc(-c2cccc3[nH]c(-c4cccc(C#N)c4)nc23)cc(OC)c1OC | < 5.00 | < 5.00 | 5.21 | 5.21 |  |  |  |  | 
COc1cc(-c2n[nH]c3ccc(-c4ccccc4)cc23)cc(OC)c1OC | 6.61 | 6.35 | 6.26 | 6.40 |  |  |  |  | 

Structure (SMILES) | pIC50 [1] | pIC50 [2] | pIC50 [3] | pIC50 [4] | pIC50 [5] | pIC50 [6] | Ratio IC50 [7] | inhibition [8] | inhibition in vivo at 10 mg/kg [9] [%]
COc1cc(-c2ccc3[nH]nc(-c4cccc(C#N)c4)c3c2)cc(OC)c1OC | < 5.00 | < 5.00 | < 5.00 | < 5.00 |  |  |  |  | 
COc1cc2c(c(OC)c1OC)-c1ccc(OC)c(=O)cc1[C@@H](NC(C)=O)CC2 [COLCHICINE] | 7.68 |  | 7.08 | 7.08 | 6.11 | 7.78 |  |  | 
COc1cc(-c2cccc3[nH]c(-c4ccc(C(=N)NO)cc4)nc23)cc(OC)c1OC | < 5.00 | < 5.00 | < 5.00 | < 5.00 |  |  |  |  | 
COc1cc(-c2ccc3[nH]nc(-c4cccc(C(=N)NO)c4)c3c2)cc(OC)c1OC | < 5.00 | < 5.00 | < 5.00 | < 5.00 |  |  |  |  | 
COc1cc(-c2ccnc3cc(-c4ccc5c(ccn5C)c4)nn23)cc([Se]C)c1OC | 6.91 | 6.43 | 6.90 | 6.90 |  |  |  |  | 
COc1ccc(-c2cc3nccc(-c4cc(OC)c(OC)c([Se]C)c4)n3n2)cc1[N+](=O)[O-] | 5.21 | < 5.00 | 5.10 | 5.10 |  |  |  |  | 
COc1cc(-c2ccc3[nH]nc(-c4ccc5c(ccn5C)c4)c3c2)cc(OC)c1OC | 5.00 | < 5.00 | 5.10 | 5.03 |  |  |  |  | 
COc1ccc(-c2n[nH]c3ccc(-c4cc(OC)c(OC)c(OC)c4)cc23)cc1 | < 5.00 | < 5.00 | < 5.00 | < 5.00 |  |  |  |  | 
COc1cc(-c2ccc3[nH]nc(-c4ccccc4)c3c2)cc(OC)c1OC | < 5.00 | < 5.00 | < 5.00 | < 5.00 |  |  |  |  | 
COc1cc(-c2cccc3[nH]c(-c4ccc(C#N)cc4)nc23)cc(OC)c1OC | < 5.00 | < 5.00 | < 5.00 | < 5.00 |  |  |  |  | 
COc1cc(-c2ccnc3cc(-c4ccccc4)nn23)cc([Se]C)c1OC | 5.50 | < 5.00 | 5.15 | 5.15 |  |  |  |  | 
COc1cc(-c2cccc3[nH]c(-c4cccc(C(=N)NO)c4)nc23)cc(OC)c1OC | < 5.00 | < 5.00 | < 5.00 | < 5.00 |  |  |  |  | 
COc1cc(-c2n[nH]c3ccc(-c4ccc(C)cc4)cc23)cc(OC)c1OC | 7.37 | 6.27 | 6.58 | 7.27 |  |  |  |  | 
COc1cc(-c2n[nH]c3ccc(-c4ccc(F)cc4)cc23)cc(OC)c1OC | 6.22 | 6.12 | 6.03 | 6.20 |  |  |  |  | 
COc1cc(-c2nccn3c(-c4ccc5c(ccn5C)c4)cnc23)cc(OC)c1OC | < 5.00 | < 5.00 | < 5.00 | < 5.00 |  |  |  |  | 
COc1cc(-c2nccn3c(-c4cc(OC)c(OC)c(OC)c4)cnc23)cc(OC)c1OC | < 5.00 | < 5.00 | < 5.00 | < 5.00 |  |  |  |  | 
COc1cc(-c2ccnc3cc(-c4ccc(C)cc4)nn23)cc([Se]C)c1OC | 6.77 | 6.64 | 6.35 | 6.35 |  |  |  |  | 
COc1cc(-c2n[nH]c3ccc(-c4ccc(C#N)cc4)cc23)cc(OC)c1OC | 5.98 | 5.99 | 5.68 | 5.85 |  |  |  |  | 
COc1cc(-c2n[nH]c3ccc(-c4ccc5c(ccn5C)c4)cc23)cc(OC)c1OC | 7.59 | 7.03 | 6.85 | 7.19 |  |  |  |  | 
CCCCn1ccc2c(-c3nc4c(-c5cc(OC)c(OC)c(OC)c5)cccc4[nH]3)cccc21 | < 5.00 | < 5.00 | < 5.00 | < 5.00 |  |  |  |  | 
